Laboratory results taken from patent US4861771A, “Carbamates of 6-chloro-7,8-dihydroxy-1-(4'-hydroxyphenyl)-2,3,4,5-tetrahydro-1H-3-benz azepine as prodrugs” (priority 1989, dated 1989).
Counter-ions that a name gives are not always drawn.

Legend:
renal blood flow = renal blood flow in chronically instrumented (flow probe) dogs; format: in vivo, female mongrel dogs; conditions: oral
Text: (§1) The renal blood flow of the compounds of Formula 1 was readily measured in female mongrel dogs which underwent chronic implantation of a renal flow probe and arterial Vascular-Acess-Port. Briefly, the dogs were anesthetizied and using standard asceptic techniques, a Transonic flow probe was placed around the left renal artery and the connector tunneled subcutaneously to the back of the dog. The Vascular-Access-Port was placed in the left femoral artery and the access portion tacked to the underlying muscle in the area of the paralumbar-fossa. The patency of the Vascular Access Port was maintained by weekly flushing of the catheter and locking with a 50% glucose 500 U/ml heparinized solution. Dogs were trained to lie quietly restrained on a board and the connector portion of the flow probe was exteriorized under local anesthesia and connected to a Transonic flowmeter. Renal blood flow was recorded continuously on a Gilson chart recorder. Mean arterial pressure was monitored directly from the Vascular-Access-Port using a 23 gauge butterfly. Mean arterial blood pressure and renal blood flow were recorded before and for 6 hr. after the oral or i.v. administration of the R-enantiomers of the parent compound (fenoldopam) and the prodrug of fenoldopam. At the end of the experiment, the flow probe connector was returned to its subcutaneous position and the skin incision closed with chromic gut and skin staples. The VAP was again flushed and a fresh heparin glucose lock established. Standard sterile procedures followed during the removal and replacement of the flow probe connector.
The effect was transient and renal blood flow had returned to control values within 60 minutes.

[1] = plasma fenoldopam levels in dogs; format: in vivo, female mongrel dogs
Text: as §1
During the experiment post drug blood samples were withdrawn periodically in order to determine the plasma levels of the parent drug, i.e., fenoldopam plasma levels.

[2] = cited from earlier work

In the case of `Oc1ccc([C@H]2CNCCc3c2cc(O)c(O)c3Cl)cc1` [R-6-chloro-7,8-dihydroxy-1-(4'-hydroxyphenyl)-2,3,4,5-tetrahydro-1H-3-benzazepine], the “renal blood flow effect in words” value (renal blood flow; 4 dogs) is reported as “transient”, the “time for renal blood flow to return to control values” (renal blood flow; 4 dogs) is reported as no more than 60 min and the “increase in renal blood flow” value (renal blood flow; 4 dogs, significant increase) is reported as 80%. It also gave a Tmax ([1]; dog, plasma, oral, 4 dogs, read-out: time of peak plasma fenoldopam level (converted)) of 5 min.
For `Oc1ccc(C2CNCCc3c2cc(O)c(O)c3Cl)cc1` (centres unmarked) [fenoldopam, 6-chloro-7,8-dihydroxy-1-(4-hydroxyphenyl) 2,3,4,5-tetrahdyro-1H-3-benzazepine], the half-life ([1]; dog, plasma, after oral administration of fenoldopam, dogs) is listed as 12 min, the “initial peak plasma level” value ([2]; in vivo, po) is listed as “initial high peak plasma level” and the bioavailability ([2]; oral) is listed as “low”. The first pass metabolism ([2]; oral) was “high” and the half life ([2]; reportedly) was “short”.
In the case of `CCNC(=O)Oc1ccc([C@H]2CNCCc3c2cc(OC(=O)NCC)c(OC(=O)NCC)c3Cl)cc1` [Example 3, (R)-6-chloro-7,8-diethylcarbamoyl-(4'-ethylcarbamoylphenyl)-2,3,4,5-tetrahydro-1H-3-benzazepine hydrochloride], the “duration of sustained increase in renal blood flow” value (renal blood flow; dogs) is reported as 4 to 6 h and the “duration of sustained increase in plasma fenoldopam” value ([1]; oral, dogs) is reported as 4 to 6 h.
